These results are taken from publication PMC8625466 (Viruses, 2021).

A word on the CC50: it is the concentration that lowers cell viability or growth by half. Usually EC50 stands for the midpoint of the concentration-response curve. As usually defined, the IC50 is the midpoint of a concentration-inhibition curve.

A short description of one series: in vitro. The note with it: hamster, Cytotoxicity (CC50).
The next series deals with FMDV. The series can be described thus: organism not typed. Type of series: cell-based, Foot-and-mouth-disease virus serotype A (NP05).
A further series has as its target FMDV 3C^pro (Foot-and-mouth disease virus, UniProt P03306). The series can be described thus: cell-based.
[1] abbreviates: BHK-21, 0 h, read-out: Viral (EC50).
[2] abbreviates: BHK-21, 2 h, read-out: Post-Viral (EC50).
Where [3] appears, read: BHK-21, read-out: Prophylaxis (EC50).
Setting [4] is: read-out: EC50 (low antiviral activities).

Read-outs that look alike come from different tables or passages of the source.

FMDV 3C^pro, sequence (P03306 1650-1862 limits assumed): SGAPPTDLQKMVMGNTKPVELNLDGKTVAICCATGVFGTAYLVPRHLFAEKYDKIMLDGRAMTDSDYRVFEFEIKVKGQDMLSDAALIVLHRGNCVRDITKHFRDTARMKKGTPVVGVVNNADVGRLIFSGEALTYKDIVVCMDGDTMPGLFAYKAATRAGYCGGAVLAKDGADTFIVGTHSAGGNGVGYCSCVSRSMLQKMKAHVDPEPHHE

In the case of Methyl Hesperidin,(S), in the series on BHK-21 cells, the half-maximal cytotoxic concentration (CC50) was greater than 100 µM.

Compound `O=C(/C=C/c1ccc(O)cc1)OC[C@H]1O[C@@H](Oc2c(-c3ccc(O)cc3)oc3cc(O)cc(O)c3c2=O)[C@H](O)[C@@H](O)[C@@H]1O` [Tiliroside] showed a CC50 in the series “in vitro” greater than 100 µM.

Regarding `O=C(/C=C/c1ccc(O)c2c1[C@H](C(=O)O)[C@@H](c1ccc(O)c(O)c1)O2)O[C@H](Cc1ccc(O)c(O)c1)C(=O)O` [Lithospermic acid], the half-maximal cytotoxic concentration (CC50) in “in vitro” is greater than 100 µM.

As to `COc1cc(O)c2c(=O)cc(-c3ccc(O)c(O)c3)oc2c1` [7-O-Methylluteolin], the CC50 in “in vitro” is greater than 100 µM. The EC50 is 75 to 100 µM with FMDV (setting [1]), 75 to 100 µM in the series with FMDV (setting [2]), greater than 100 µM in the series with FMDV (setting [3]) and 75 to 100 µM in the series with FMDV (setting [4]). Besides, the concentration for half-maximal inhibition (IC50) on FMDV 3C^pro is greater than 200 µM.

Consider `COc1ccc(-c2cc(=O)c3c(O)cc(O[C@@H]4O[C@H](CO[C@@H]5O[C@@H](C)[C@H](O)[C@@H](O)[C@H]5O)[C@@H](O)[C@H](O)[C@H]4O)cc3o2)cc1` [Linarin], for which the CC50 with BHK-21 cells was greater than 100 µM.

In the series with BHK-21 cells, Epicatechin-3-gallate registered a CC50 of 77 ± 8.85 µM.

Turning to `O=C(O[C@@H]1Cc2c(O)cc(O)cc2O[C@@H]1c1cc(O)c(O)c(O)c1)c1cc(O)c(O)c(O)c1` [EGCG], the CC50 in the series with BHK-21 cells is greater than 100 µM.

In the case of `COc1ccc(-c2cc(=O)c3c(O)cc(O[C@@H]4O[C@H](CO[C@@H]5O[C@@H](C)[C@H](O)[C@@H](O)[C@H]5O)[C@@H](O)[C@H](O)[C@H]4O)cc3o2)cc1O` [Diosmin], in “in vitro”, the CC50 was greater than 100 µM.

Compound `CCOC(=O)/C=C/[C@H](C[C@@H]1CCNC1=O)NC(=O)[C@@H](CC(=O)[C@@H](NC(=O)c1cc(C)on1)C(C)C)Cc1ccc(F)cc1` [Rupintrivir, reference compound] came in with a CC50 in “in vitro” greater than 100 µM. Moreover, the results for the EC50 with FMDV (setting [1]), with FMDV (setting [2]) and with FMDV (setting [3]) were 1.99 ± 0.01 µM, 1.69 ± 0.19 µM and 11.8 ± 1.03 µM, respectively. The “Fold increase of the FLuc over Renilla luciferase (Rluc) ratio” value (“Fold increase of the FLuc … (Rluc) ratio” for short) on FMDV 3C^pro came out at 4.27 fold. This compound had an IC50 against FMDV 3C^pro of 13.5 ± 0.19 µM.

Compound `O=C(O)[C@H]1O[C@@H](Oc2cc3oc(-c4ccccc4)cc(=O)c3c(O)c2O)[C@H](O)[C@@H](O)[C@@H]1O` [Baicalin] returned a CC50 in the series “in vitro” greater than 100 µM.

`O=C/C=C/c1ccccc1` [Cinnamaldehyde]: in “in vitro”, the 50% cytotoxic concentration (CC50) is greater than 100 µM.

In “in vitro”, `O=C(COc1cc(O)c2c(=O)cc(-c3ccccc3)oc2c1)c1ccc(F)cc1` [Kaempferol derivative, 7-[2-(4-Fluorophenyl)-2-oxoethoxy]-5-hydroxy-2-phenyl-4H-chromen-4-one] came in with a CC50 greater than 100 µM.

The compound `NC(=O)c1ncn([C@@H]2O[C@H](CO)[C@@H](O)[C@H]2O)n1` [Ribavirin, reference compound] gave a CC50 in “in vitro” greater than 100 µM. The results for the EC50 with FMDV (setting [1]), in the series with FMDV (setting [2]) and with FMDV (setting [3]) were 41.8 ± 1.58 µM, 133 ± 2.03 µM and 283.9 ± 2.3 µM, respectively.

With `COc1cc(C2Oc3cc([C@H]4Oc5cc(O)cc(O)c5C(=O)[C@@H]4O)ccc3OC2CO)ccc1O` (stereo partly drawn) [Flavobin], the CC50 in the series “in vitro” was found to be 45.1 µM.

With Hyperoxide, the CC50 in the series on BHK-21 cells was greater than 100 µM.

Compound `COc1ccc(-c2coc3cc(O[C@@H]4O[C@H](CO)[C@@H](O)[C@H](O)[C@H]4O)ccc3c2=O)cc1O` [Calycosin 7-O-glucoside] had a CC50 in the series on BHK-21 cells greater than 100 µM.

With `O=c1cc(-c2ccc(O)cc2)oc2cc(O)cc(O)c12` [Apigenin], in the series “in vitro”, it took 68.7 ± 4.1 µM to reach half-maximal cytotoxicity (CC50). Moreover, the EC50 in the series with FMDV (setting [1]) was 75 to 100 µM; in the series with FMDV (setting [2]), 75 to 100 µM; in the series on FMDV (setting [3]) it was greater than 100 µM; in the series on FMDV (setting [4]), 75 to 100 µM. Further, the IC50 against FMDV 3C^pro is greater than 200 µM.

Regarding `O=c1cc(-c2ccccc2)oc2cc(O[C@@H]3O[C@H](CO[C@@H]4O[C@H](CO)[C@@H](O)[C@H](O)[C@H]4O)[C@@H](O)[C@H](O)[C@H]3O)c(O)c(O)c12` [Oroxin B], the midpoint of cytotoxicity in the series with BHK-21 cells, the CC50, lay at 85.9 ± 7.4 µM.

`COc1ccc([C@@H]2CC(=O)c3c(O)cc(O[C@@H]4O[C@H](CO[C@@H]5O[C@@H](C)[C@H](O)[C@@H](O)[C@H]5O)[C@@H](O)[C@H](O)[C@H]4O)cc3O2)cc1O` [Hesperidin] had a CC50 in the series on BHK-21 cells greater than 100 µM.

In “in vitro”, `O=c1cc(-c2ccc(O)c(O)c2)oc2cc(O)cc(O)c12` [Luteolin] had a CC50 greater than 100 µM. Moreover, the values for the EC50 in the series on FMDV (setting [1]), in the series on FMDV (setting [2]) and with FMDV (setting [3]) were 9.73 ± 0.94 µM, 10 ± 0.98 µM and 25.8 ± 1.29 µM, respectively. Further, the “Fold increase of the FLuc … (Rluc) ratio” value at FMDV 3C^pro was found to be 1.86 fold. The same compound displayed an IC50 against FMDV 3C^pro of 176.7 ± 0.05 µM.

For `C[C@@H]1O[C@@H](Oc2cc(O)c3c(=O)c(O)c(-c4ccc(O)c(O)c4)oc3c2)[C@H](O)[C@H](O)[C@H]1O` [Quercetin 7-rhamnoside], the CC50 with BHK-21 cells is greater than 100 µM. The EC50 with FMDV (read-out: Post-Viral (EC50)) was 75 to 100 µM; with FMDV (read-out: Prophylaxis (EC50)), greater than 100 µM; in the series with FMDV (read-out: Viral (EC50)), greater than 100 µM. The IC50 on FMDV 3C^pro (read-out: IC50, cell-based protease assay) was greater than 200 µM.

In the series “in vitro”, `COc1ccc(-c2cc(=O)c3c(O)cc(O)c(-c4cc(-c5cc(=O)c6c(O)cc(O)cc6o5)ccc4OC)c3o2)cc1` [Isoginkgetin] showed a CC50 greater than 100 µM. Besides, the EC50 in the series on FMDV (setting [1]) amounted to 2.01 ± 0.07 µM; in the series with FMDV (setting [2]) it was 1.93 ± 0.21 µM; in the series with FMDV (setting [3]), 6.76 ± 0.8 µM. The “Fold increase of the FLuc … (Rluc) ratio” value at FMDV 3C^pro amounted to 2.65 fold. Besides, on FMDV 3C^pro, the IC50 is 39.03 ± 0.05 µM.
